Test results published in a melting point compilation (Tetko et al.; mined from patent text by program, amines drawn as free bases though some values may be those of a salt).

First: Cc1c(C)c2c(c(C)c1NC(=O)c1ccc(F)cc1)C(c1ccc(C(C)C)cc1)C(C)(C)O2 (single isomer, unassigned; (+))
Second: COC(=O)c1ccc(C(=O)Oc2ccc([Si](C)(C)C)cc2C(C)=O)cc1
The melting point of the first is higher: 251 to 253 °C for the first, 88.5 to 90.5 °C for the second.

Compared with `CC(C)(C)OC(=O)Nc1ccc(-c2cc(F)ccc2F)cc1[N+](=O)[O-]`, `COC(=O)CC1=C(C)Cc2ccc(F)cc21` is lower in melting point: 104 °C for the first, 53 °C for the second.

First: N=C(N)Nc1nc(C(=O)NCCCC(CC(=O)O)c2ccccc2)cs1 (racemic)
Second: COC(=O)C(c1ccccc1)c1ccccn1 (racemic)
The melting point of the first is higher: 230 °C for the first, 74 °C for the second.

First: CC(=O)OCC(=O)C1(OC(C)=S)CCC2C3CC(C)C4=CC(=O)C=CC4(C)C3C(O)CC21C (stereo not drawn)
Second: CC(=O)Nc1ccc(N2CC(CNC(C)=S)OC2=O)cc1F (stereo not drawn)
The melting point of the first is lower: 149 to 151 °C for the first, 200 to 201 °C for the second.

First: CC(C)=NNc1cnn(-c2cccc(C(F)(F)F)c2)c(=O)c1
Second: O=c1[nH]nc(-c2cccc(C(F)(F)F)c2)c2ncccc12
The melting point of the first is higher: 255 to 257 °C for the first, 210 to 215 °C for the second.

First: O=C(c1ccccc1)P1(=O)Oc2ccccc2-c2ccccc21 (stereo not drawn)
Second: Cc1onc(-c2ccccc2)c1COc1ccc(-c2cc(O)c(SCCc3ccccc3)c(=O)o2)cc1
The melting point of the first is higher: 134 to 135 °C for the first, 126 to 128 °C for the second.

Compared with `Cn1c(=O)c2nc(-c3ccc(/C=C/C(=O)O)cc3)[nH]c2n(Cc2cccc(C#N)c2)c1=O`, `COc1cccc2c(=O)cc(C=Cc3ccc(C(=O)O)cc3)oc12` is lower in melting point: > 300 °C for the first, 298 to 300 °C for the second.

Compared with `Cc1nc2cnccc2n1-c1ccc(Cn2c(=O)oc3ccccc32)cc1`, `CC(=O)NCc1ccc2oc([N+](=O)[O-])c(-c3ccccc3)c2c1` is higher in melting point: 84 to 87 °C for the first, 201 to 203 °C for the second.

Compared with `COc1ccc(NS(=O)(=O)c2cc(S(=O)(=O)Nc3ccc(OC)cc3C)c3cc(O)ccc3c2)c(C)c1`, `COC(=O)Cc1ccc(Oc2ccc(S(C)(=O)=O)cc2)cc1` is lower in melting point: 211 to 213 °C for the first, 93 to 98 °C for the second.

First: Cc1onc(-c2ccc(-c3cscn3)cc2)c1-c1ccc(S(C)(=O)=O)c(F)c1
Second: Cn1ncc(C(=O)c2ccc(S(C)(=O)=O)c3c2CC2CON=C32)c1OC(=O)c1ccccc1 (stereo not drawn)
The melting point of the first is higher: 130 °C for the first, 86 to 93 °C for the second.

First: Cc1cc(C)c(-c2cn(C)c3nc(N)n(C)c(=O)c23)c(C)c1
Second: COc1ccc(-n2ccnc2)cc1C(O)c1c(C)cc(C)cc1C (stereo not drawn)
The melting point of the first is higher: 229 to 231 °C for the first, 187 to 188 °C for the second.

First: CC(C(O)C(C)(C)Cc1ccc(Cl)c(OC(F)(F)F)c1)n1cncn1 (stereo not drawn)
Second: COC(=O)c1ncnn1Cc1ccc([N+](=O)[O-])cc1
The melting point of the first is lower: 109 to 110 °C for the first, 126 to 130 °C for the second.

`COc1cc(CC2NC(=O)NC2=O)cc(OC)c1OC` (stereo not drawn) and `COc1cc(CCN2CCc3cc(O)ccc3C2)cc(OC)c1OC` cannot be ordered by melting point: 180 to 181 °C for the first, 180 to 186 °C for the second.

First: O=C(Nc1cccc(-c2ccnc3c(C(=O)c4cccs4)cnn23)c1)c1ccc(Cl)cc1Cl
Second: Oc1ccc(-c2c3ccc(O)cc3cc3sc4ccccc4c23)cc1
The melting point of the first is lower: 132 to 134 °C for the first, 233 to 235 °C for the second.

Compared with `CCOC(=O)c1c(N2CCN(CCO)CC2)c2cc(Cl)ccc2[nH]c1=O`, `CN1C(=O)N2[C@H](c3cccc(O)c3)c3[nH]c4ccc(Cl)cc4c3C[C@@]2(C)C1=O` (racemic) is higher in melting point: 130 to 134 °C for the first, 248 to 250 °C for the second.

`CC(=O)c1cc2c(s1)CCCC1CC(=O)N(c3ccc(Cl)cc3)N=C21` (stereo not drawn) and `CCN1CCc2cc(Nc3ncc(Cl)c(Nc4ccccc4C(=O)NC)n3)c(OC)cc2CC1=O` cannot be ordered by melting point: 128 to 130 °C for the first, 120 to 132 °C for the second.

Compared with `COc1cc(NC(C)=O)cc(C(F)(F)F)c1`, `CCCCOc1ncc(C(=O)N[C@@H]2CCCC[C@H]2O)cc1-c1cc(C(F)(F)F)ccc1F` is higher in melting point: 123 to 124 °C for the first, 172 to 178 °C for the second.

First: CC(C)(O)C(=O)Nc1ccc(Nc2ccccc2)cc1
Second: Cc1cccc(NC(=O)NCC(=O)N(CC(=O)N2CCC3(CC2)OCCO3)c2ccccc2)c1
The melting point of the first is higher: 171 to 174 °C for the first, 130 °C for the second.

Compared with `CCCCCCCCCCCCCCc1c[nH]c(C(=O)OC)c1`, `CCCCCCCCCCCCCCCCCCOc1cc(OCCCOc2ccc(OCc3ccccc3)cc2)cc(C(=O)OC)c1` is lower in melting point: 80 to 82 °C for the first, 76 to 77 °C for the second.

First: C=CCOc1cc(C(=O)O)cc(S(C)(=O)=O)c1OCC=C
Second: CCOC(=O)c1nc(C=Cc2cccc(Cl)c2)oc1C
The melting point of the first is higher: 163 °C for the first, 116 to 117 °C for the second.

First: OCC1OC(n2cnc3c(NCCC(c4ccccc4)c4ccccc4)ncnc32)C(O)C1O (stereo not drawn)
Second: CS(=O)(=O)Nc1ccc2ccccc2c1-c1c(P(=O)(c2ccccc2)c2ccccc2)ccc2ccccc12
The melting point of the first is lower: 103 to 118 °C for the first, 282 °C for the second.

First: OC(=S)c1cccnc1
Second: N#CN=C(Nc1cccnc1)NC(NC(=O)c1ccc(Cl)cc1)C(F)(F)C(F)(F)F (stereo not drawn)
The melting point of the first is lower: 84 to 86 °C for the first, 177 to 178 °C for the second.

Compared with `O=C(c1ccc(-c2cnc3c(c2)N(Cc2cc(F)ccc2F)CCN3)cc1)N1CCC(N2CCCC2)CC1`, `CCN(CC)CC1CCCCN1CC(=O)N1c2ccc(C)cc2C(=O)Nc2cccnc21` (stereo not drawn) is lower in melting point: 202 to 204 °C for the first, 173 to 174 °C for the second.

Compared with `COc1ccc(SCc2ccc(F)cc2F)c(Cl)c1Cl`, `CCCc1cc(-c2noc3cc(OC)ccc23)ccc1OC` is lower in melting point: 86 to 88 °C for the first, 70 to 72 °C for the second.

First: CCOC(OCC)[C@@H]1CCCN1C(=O)[C@@H]1CCCN1C(=O)OCc1ccccc1
Second: CCOC(=O)C(Cc1c(Br)c(OC)c(OC)c(OC)c1OC)(C(=O)OCC)c1ccc(OCc2ccccc2)cc1
The melting point of the first is lower: 58.5 to 61 °C for the first, 93 to 94 °C for the second.

First: CC(=O)n1cc(-c2ccccc2)c(-n2cnnc2)n1
Second: C=C1c2ccccc2C=Cn2c1nnc2S(C)=O (stereo not drawn)
The melting point of the first is higher: 165 to 168 °C for the first, 140 to 142 °C for the second.

Compared with `S=c1[nH]ccn1C1Cc2ccccc2C1`, `O=S1NC(CCCc2ccc3ccccc3c2)=NO1` (stereo not drawn) is lower in melting point: 210 to 211 °C for the first, 139 to 140 °C for the second.

First: NC(=O)C(CC1CCCC1)c1ccc(Cl)c([N+](=O)[O-])c1 (stereo not drawn)
Second: Cc1occc1C(=S)Nc1ccc(Cl)c(C=NN2CCOCC2)c1
The melting point of the first is lower: 112 to 114 °C for the first, 142 to 143 °C for the second.

First: N#Cc1nn(-c2c(Cl)cc(C(F)(F)F)cc2Cl)cc1C1CC1(Br)Br (stereo not drawn)
Second: Nc1nc(N)c2c(n1)CCC(Cc1cc(Cl)cc(Cl)c1)C2 (stereo not drawn)
The melting point of the first is lower: 121 to 123 °C for the first, > 200 °C for the second.

Compared with `CCCc1sc2nc(CN(CC)CC)c(C(=O)OCC)c(-c3ccc(Cl)cc3)c2c1C`, `CCOC(=O)c1cn(C)c2c(=O)oc3ccccc3c2c1=O` is higher in melting point: 82 to 83 °C for the first, 203 to 208 °C for the second.

First: CCSCCNC(=O)Nc1ccccc1CCc1cc(C(C)(C)C)c(O)c(C(C)(C)C)c1
Second: Cc1cc(SC(C)C)c(NC(=O)CSc2nc3ccccc3o2)c(SC(C)C)n1
The melting point of the first is lower: 131 to 132 °C for the first, 151 to 152 °C for the second.

First: c1coc(CN2CC3(COc4cc5c(cc43)OCO5)c3ccccc32)c1 (stereo not drawn)
Second: Cc1oc(-c2ccco2)nc1COc1ccc(COc2nn(C)cc2CC(=O)O)cn1
The melting point of the first is lower: 110 to 112 °C for the first, 155 to 156 °C for the second.

First: CC(C)NC1=Nc2ccc(Cl)cc2S(=O)(=O)N1C
Second: CN1CCN(c2cccc(-n3cnc4cc(C#N)ccc43)c2)CC1
The melting point of the first is lower: 139 to 141 °C for the first, 158 to 160 °C for the second.

First: COC(=O)n1nc2nc3n(c(=O)c2c1N)CCS3
Second: CC(c1ccc(O)cc1)(c1ccc(O)cc1)c1ccc2ccccc2c1
The melting point of the first is higher: 200 to 203 °C for the first, 185 to 186 °C for the second.
